26 compounds from patent publication US20240336613A1, “HETEROARYL COMPOUNDS FOR TREATING HUNTINGTON'S DISEASE” (PTC THERAPEUTICS, INC., priority 2021, published 2024) can be followed below.

What is called IC50 is the concentration that gives 50% inhibition.

The test system of the first test is Huntingtin protein (HTT). Nature of the test: Endogenous Huntingtin Protein Assay (MSD electrochemiluminescence). The conditions noted are these: Table 1, Endogenous Huntingtin Protein Assay. The test is classed as cell-based. How it is done: Compounds of Formula (I) were tested using the Meso Scale Discovery (MSD) Assay provided in International Application No. PCT/US2016/066042, filed on Dec. 11, 2016 and claiming priority to United States Provisional Application U.S. 62/265,652 filed on Dec. 10, 2015, the entire contents of which are incorporated herein by reference.
The Endogenous Huntingtin Protein assay used in Example 1 was developed using the ELISA-based MSD electrochemiluminescence assay platform.
Meso Scale Discovery (MSD) 96-well or 384-well plates were coated overnight at 4° C. with MW1 (expanded polyglutamine) or MAB2166 monoclonal antibody (for capture) at a concentration of 1 μg/mL in PBS (30 μL per well). Plates were then washed three times with 300 μL wash buffer (0.05% Tween-20 in PBS) and blocked (100 μL blocking buffer; 5% BSA in PBS) for 4-5 hours at room temperature with rotational shaking and then washed three times with wash buffer.
Samples (25 μL) were transferred to the antibody-coated MSD plate and incubated overnight at 4° C. After removal of the lysates, the plate was washed three times with wash buffer, and 25 μL of #5656S (Cell signaling; rabbit monoclonal) secondary antibody (diluted to 0.25 μg/mL in 0.05% Tween-20 in blocking buffer) was added to each well and incubated with shaking for 1 Hour at room temperature. Following incubation with the secondary antibody, the wells were rinsed with wash buffer after which 25 μL of goat anti-rabbit SULFO TAG secondary detection antibody (required aspect of the MSD system) (diluted to 0.25 μg/mL in 0.05% Tween-20 in blocking buffer) was added to each well and incubated with shaking for 1 hour at room temperature. After rinsing three times with wash buffer, 150 μL of read buffer T with surfactant (MSD) were added to each empty well, and the plate was imaged on a SI 6000 imager (MSD) according to manufacturers' instructions provided for 96- or 384-well plates.
The compound `Cc1cn(-c2ccc(-c3cc4ccn([C@H]5CC(C)(C)NC(C)(C)[C@H]5F)c4nn3)c(O)c2)nn1` [Cpd 15, 2-{7-[(3S,4S)-3-fluoro-2,2,6,6-tetramethylpiperidin-4-yl]-7H-pyrrolo[2,3-c]pyridazin-3-yl}-5-(4-methyl-1H-1,2,3-triazol-1-yl)phenol] registered an IC50 of less than 100 nM.

As for `Cc1cn(-c2ccc(-c3cc4ccn([C@H]5CCNC6(CC6)C5)c4nn3)c(O)c2)nn1` [Cpd 16, 2-{7-[(7S)-4-azaspiro[2.5]octan-7-yl]-7H-pyrrolo[2,3-c]pyridazin-3-yl}-5-(4-methyl-1H-1,2,3-triazol-1-yl)phenol], the IC50 is less than 100 nM.

Compound `Cc1cnnn1-c1ccc(-c2cc3ccn([C@H]4CC(C)(C)NC(C)(C)[C@H]4F)c3nn2)c(O)c1` [Cpd 17, 2-{7-[(3S,4S)-3-fluoro-2,2,6,6-tetramethylpiperidin-4-yl]-7H-pyrrolo[2,3-c]pyridazin-3-yl}-5-(5-methyl-1H-1,2,3-triazol-1-yl)phenol] returned a half-inhibitory concentration (IC50) of 100 to 500 nM.

Compound `CC1(C)C[C@H](n2ccc3cc(-c4ccc(-n5cc(Cl)nn5)cc4O)nnc32)[C@H](F)C(C)(C)N1` [Cpd 19, 5-(4-chloro-1H-1,2,3-triazol-1-yl)-2-{7-[(3S,4S)-3-fluoro-2,2,6,6-tetramethylpiperidin-4-yl]-7H-pyrrolo[2,3-c]pyridazin-3-yl}phenol] returned a half-inhibitory concentration (IC50) of less than 100 nM.

Staying with this test, now noted: Table 1, Endogenous Huntingtin Protein Assay; read-out: IC50.
Consider “2-{7-[(1S,2R,3R,5R)-2-fluoro-1,5-dimethyl-8-azabicyclo[3.2.1]octan-3-yl]-7H-pyrrolo[2,3-c]pyridazin-3-yl}-5-(1H-1,2,3-triazol-1-yl)phenol and 2-{7-[(1R,2S,3S,5S)-2-fluoro-1,5-dimethyl-8-azabicyclo[3.2.1]octan-3-yl]-7H-pyrrolo[2,3-c]pyridazin-3-yl}-5-(1H-1,2,3-triazol-1-yl)phenol [Cpd 21]”, for which the concentration for half-maximal inhibition (IC50) is less than 100 nM.

“2-{7-[(1S,2S,3R,5R)-2-fluoro-8-azabicyclo[3.2.1]octan-3-yl]-7H-pyrrolo[2,3-c]pyridazin-3-yl}-5-(1H-1,2,3-triazol-1-yl)phenol and 2-{7-[(1R,2R,3S,5S)-2-fluoro-8-azabicyclo[3.2.1]octan-3-yl]-7H-pyrrolo[2,3-c]pyridazin-3-yl}-5-(1H-1,2,3-triazol-1-yl)phenol [Cpd 20]”: the IC50 was less than 100 nM.

With “2-{7-[(3R,4S)-3-fluoro-2,2,6,6-tetramethylpiperidin-4-yl]-7H-pyrrolo[2,3-c]pyridazin-3-yl}-5-(1H-1,2,3-triazol-1-yl)phenol and 2-{7-[(3S,4R)-3-fluoro-2,2,6,6-tetramethylpiperidin-4-yl]-7H-pyrrolo[2,3-c]pyridazin-3-yl}-5-(1H-1,2,3-triazol-1-yl)phenol [Cpd 3]”, the IC50 was less than 100 nM.

On to “2-{7-[(3S,4S)-3-fluoro-2,2,6,6-tetramethylpiperidin-4-yl]-7H-pyrrolo[2,3-c]pyridazin-3-yl}-5-(1H-1,2,3-triazol-1-yl)phenol and 2-{7-[(3R,4R)-3-fluoro-2,2,6,6-tetramethylpiperidin-4-yl]-7H-pyrrolo[2,3-c]pyridazin-3-yl}-5-(1H-1,2,3-triazol-1-yl)phenol [Cpd 2]”, for which the IC50 is less than 100 nM.

In the case of “2-{7-[(4S,5R)-5-fluoro-2,2-dimethylpiperidin-4-yl]-7H-pyrrolo[2,3-c]pyridazin-3-yl}-5-(1H-1,2,3-triazol-1-yl)phenol and 2-{7-[(4R,5S)-5-fluoro-2,2-dimethylpiperidin-4-yl]-7H-pyrrolo[2,3-c]pyridazin-3-yl}-5-(1H-1,2,3-triazol-1-yl)phenol [Cpd 12]”, the IC50 is less than 100 nM.

Consider “2-{7-[(8R,9R)-9-fluoro-5-azaspiro[3.5]nonan-8-yl]-7H-pyrrolo[2,3-c]pyridazin-3-yl}-5-(1H-1,2,3-triazol-1-yl)phenol and 2-{7-[(8S,9S)-9-fluoro-5-azaspiro[3.5]nonan-8-yl]-7H-pyrrolo[2,3-c]pyridazin-3-yl}-5-(1H-1,2,3-triazol-1-yl)phenol [Cpd 23]”, for which the IC50 is less than 100 nM.

With “2-{7-[(8S,9R)-8-fluoro-6-azaspiro[4.5]decan-9-yl]-7H-pyrrolo[2,3-c]pyridazin-3-yl}-5-(1H-1,2,3-triazol-1-yl)phenol and 2-{7-[(8R,9S)-8-fluoro-6-azaspiro[4.5]decan-9-yl]-7H-pyrrolo[2,3-c]pyridazin-3-yl}-5-(1H-1,2,3-triazol-1-yl)phenol [Cpd 25]”, the half-inhibitory concentration (IC50) is 100 to 500 nM.

As for “5-(1H-1,2,3-triazol-1-yl)-2-{7-[(4RS)-1,2,2-trimethylpiperidin-4-yl]-7H-pyrrolo[2,3-c]pyridazin-3-yl}phenol [Cpd 6]”, the IC50 lay within 500 to 1000 nM.

In the case of `CC1(C)CC(n2ccc3cc(-c4ccc(-n5ccnn5)cc4O)nnc32)CCN1` (racemic) [Cpd 5, 2-{7-[(4RS)-2,2-dimethylpiperidin-4-yl]-7H-pyrrolo[2,3-c]pyridazin-3-yl}-5-(1H-1,2,3-triazol-1-yl)phenol], the 50% inhibitory concentration (IC50) was less than 100 nM.

For `CC1(C)CC(n2ccc3cc(-c4ccc(-n5ccnn5)cc4O)nnc32)CC(C)(C)N1` [Cpd 1, 2-[7-(2,2,6,6-tetramethylpiperidin-4-yl)-7H-pyrrolo[2,3-c]pyridazin-3-yl]-5-(1H-1,2,3-triazol-1-yl)phenol], the IC50 is less than 100 nM.

In the case of `Oc1cc(-n2ccnn2)ccc1-c1cc2ccn(C3CCNC4(CC4)C3)c2nn1` (centres unmarked) [Cpd 4, 2-[7-(4-azaspiro[2.5]octan-7-yl)-7H-pyrrolo[2,3-c]pyridazin-3-yl]-5-(1H-1,2,3-triazol-1-yl)phenol], the IC50 was less than 100 nM.

For the compound `CN1CCC(n2ccc3cc(-c4ccc(-n5ccnn5)cc4O)nnc32)CC12CC2` (centres unmarked) [Cpd 7, 2-[7-(4-methyl-4-azaspiro[2.5]octan-7-yl)-7H-pyrrolo[2,3-c]pyridazin-3-yl]-5-(1H-1,2,3-triazol-1-yl)phenol], the IC50 was less than 100 nM.

Regarding `CC1(C)C[C@H](n2ccc3cc(-c4ccc(-n5ccnn5)cc4O)nnc32)[C@H](F)C(C)(C)N1` [Cpd 8], the IC50 was less than 100 nM.

Consider `Cc1cc2cc(-c3ccc(-n4ccnn4)cc3O)nnc2n1C1CCNC2(CC2)C1` (centres unmarked) [Cpd 9, 2-[7-(4-azaspiro[2.5]octan-7-yl)-6-methyl-7H-pyrrolo[2,3-c]pyridazin-3-yl]-5-(1H-1,2,3-triazol-1-yl)phenol], for which the 50% inhibitory concentration (IC50) is 100 to 500 nM.

For the compound `Cc1cc2cc(-c3ccc(-n4ccnn4)cc3O)nnc2n1[C@H]1CC(C)(C)NC(C)(C)[C@H]1F` [Cpd 10, 2-{7-[(3S,4S)-3-fluoro-2,2,6,6-tetramethylpiperidin-4-yl]-6-methyl-7H-pyrrolo[2,3-c]pyridazin-3-yl}-5-(1H-1,2,3-triazol-1-yl)phenol], the IC50 was less than 100 nM.

As to `Oc1cc(-n2ccnn2)ccc1-c1cc2ccn([C@@H]3CCNC4(CC4)C3)c2nn1` [Cpd 11, 2-{7-[(7R)-4-azaspiro[2.5]octan-7-yl]-7H-pyrrolo[2,3-c]pyridazin-3-yl}-5-(1H-1,2,3-triazol-1-yl)phenol], the half-maximal inhibitory concentration (IC50) is less than 100 nM.

With `Oc1cc(-n2ccnn2)ccc1-c1cc2ccn([C@H]3CCNC4(CC4)C3)c2nn1` [Cpd 13, 2-{7-[(7S)-4-azaspiro[2.5]octan-7-yl]-7H-pyrrolo[2,3-c]pyridazin-3-yl}-5-(1H-1,2,3-triazol-1-yl)phenol], the half-maximal inhibitory concentration (IC50) was less than 100 nM.

As for `Oc1cc(-n2ccnn2)cnc1-c1cc2ccn([C@H]3CCNC4(CC4)C3)c2nn1` [Cpd 14, 2-{7-[(7S)-4-azaspiro[2.5]octan-7-yl]-7H-pyrrolo[2,3-c]pyridazin-3-yl}-5-(1H-1,2,3-triazol-1-yl)pyridine-3-ol], the IC50 was less than 100 nM.

As to `Cc1cnnn1-c1ccc(-c2cc3ccn([C@H]4CCNC5(CC5)C4)c3nn2)c(O)c1` [Cpd 18, 2-{7-[(7S)-4-azaspiro[2.5]octan-7-yl]-7H-pyrrolo[2,3-c]pyridazin-3-yl}-5-(5-methyl-1H-1,2,3-triazol-1-yl)phenol], the IC50 was 500 to 1000 nM.

In the case of `CC1(C)C[C@H](n2ccc3cc(-c4ccc(-n5ccnn5)cc4O)nnc32)[C@H](F)CN1` [Cpd 22, 2-{7-[(4S,5R)-5-fluoro-2,2-dimethylpiperidin-4-yl]-7H-pyrrolo[2,3-c]pyridazin-3-yl}-5-(1H-1,2,3-triazol-1-yl)phenol], the half-maximal inhibitory concentration (IC50) is less than 100 nM.

Consider `Oc1cc(-n2ccnn2)ccc1-c1cc2ccn(C3CC4(CC4)NC4(CC4)C3)c2nn1` (centres unmarked) [Cpd 24, 2-[7-(4-azadispiro[2.1.2^5.3^3]decan-9-yl)-7H-pyrrolo[2,3-c]pyridazin-3-yl]-5-(1H-1,2,3-triazol-1-yl)phenol], for which the IC50 was less than 100 nM.

The test is the same for the next values; noted with them: Table 2, comparison compounds tested according to the assay of Example 1; read-out: IC50.
For `CC1(C)CC(n2ccc3cc(-c4ccc(-n5ccnn5)cc4O)nnc32)CC(C)(C)N1` [Cpd 1, 2-[7-(2,2,6,6-tetramethylpiperidin-4-yl)-7H-pyrrolo[2,3-c]pyridazin-3-yl]-5-(1H-1,2,3-triazol-1-yl)phenol], the IC50 was 0.8 nM.

In the case of `CC1(C)CC(n2nnc3cc(-c4ccc(-c5cn[nH]c5)cc4O)nnc32)CC(C)(C)N1` [Cpd 7 in WO2020/005873, reference compound], the IC50 is 6.4 nM.

Staying with this test, now noted: compared with Cpd 26 in WO2020/005873 (1H-pyrazole replaced with 1H-1,2,3-triazole).
As for `CC1(C)CC(n2ccc3cc(-c4ccc(-n5ccnn5)cc4O)nnc32)CC(C)(C)N1` [Cpd 1, 2-[7-(2,2,6,6-tetramethylpiperidin-4-yl)-7H-pyrrolo[2,3-c]pyridazin-3-yl]-5-(1H-1,2,3-triazol-1-yl)phenol], the improvement in potency result is reported as “over 8 fold”.

Still in this test, the particulars now being: compared with Cpd 72 in WO2020/005873 (3H-[1,2,3]-triazolo[4,5-c]pyridazine core).
Consider `CC1(C)CC(n2ccc3cc(-c4ccc(-n5ccnn5)cc4O)nnc32)CC(C)(C)N1` [Cpd 1, 2-[7-(2,2,6,6-tetramethylpiperidin-4-yl)-7H-pyrrolo[2,3-c]pyridazin-3-yl]-5-(1H-1,2,3-triazol-1-yl)phenol], for which the improvement in potency is 223 fold.
